Where only a bound is given, the exact number is not on record here.

The first test concerns Escherichia coli (ATCC25922) or Staphylococcus aureus (ATCC25923). Description: Antibacterial MIC, microdilution method in Mueller-Hinton medium. It counts as cell-based. As to conditions: Escherichia coli, 18 h, MIC in E. coli or S. aureus; two-fold serial dilutions 64 to 0.5 μg/ml in duplicate; 18 hours of incubation at 35° C.; read-out: Potency (MIC). Put shortly:
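Two-fold serial dilutions from 64 to 0.5 μg/ml, in duplicate, by broth microdilution in Mueller-Hinton medium (NCCLS M7-A5). MIC taken as the lowest concentration preventing visible growth after 18 h at 35° C.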
On the technique in general: Dilution methods test growth across graded concentrations, often in twofold steps.
One may read the MIC as the least concentration at which growth counts as inhibited. With `Cl.NS(=O)(=O)c1ccc(NC(=O)c2ccc(Nc3nc(N4CCCCC4)nc(N4CCCCC4)n3)cc2O)cc1` [N-[3-hydroxy-4-{4-sulfamoyl-phenylcarbamoyl)-phenyl]-4,6-Bis-((3R,5S)-3,5-diamino-piperidin-1-yl)-[1,3,5]triazine-22-amine], the MIC was more than 64 µg/mL.

With `Cl.O=C(Nc1ccc(Cl)cc1Cl)c1ccc(Nc2nc(N3CCCCC3)nc(N3CCCCC3)n2)cc1O` [N-[4-(2,4-dichloro-phenylcarbamoyl)-3-hydroxy-phhenyl]-4,6-Bis-((3R,5S)-3,5-diamino-piperidin-1-yl)-[1,3,5]triazine-2-amine], the MIC is less than 16 µg/mL.

On to `Cl.c1ccc(N2CCN(c3nc(N4CCCCC4)nc(N4CCCCC4)n3)CC2)nc1` [2-[4-(4-Fluoro-phenyl)-piperiazin-1-yl]-4,6-Bis-((3R,5S)-3,5-diamino-piperidin-1-yl)-[1,3,5]triazine], for which the MIC was more than 64 µg/mL.

As to `N[C@@H]1C[C@H](N)CN(c2nc(Nc3ccc(Nc4ccccc4)cc3)nc(N3C[C@H](N)C[C@H](N)C3)n2)C1` [N-(4-phenylamino-phenyl)-4,6-Bis((3R,5S)-3,5-diamino-piperidin-1-yl)-[1,3,5]triazine-2-amine], the MIC is less than 64 µg/mL.

As for `Cl.NC(=O)[C@H](CO)Nc1nc(N2C[C@H](N)C[C@H](N)C2)nc(N2C[C@H](N)C[C@H](N)C2)n1` [(S)-2-[4-((3R,5S)-3,5-Diamino-piperidin-1-yl)-6-((3S,5R)-3,5-diamino-piperidin-1-yl)-[1,3,5]triazin-2-ylamino]-3-hydroxy-propionamide], the MIC was more than 64 µg/mL.

Take `N[C@@H]1C[C@H](N)CN(c2nc(Nc3cccc(OC(F)(F)F)c3)nc(N3C[C@H](N)C[C@H](N)C3)n2)C1` [N-(3-trifluoromethoxy-phenyl)-4,6-Bis-((3R,5S)-3,5-diamino-piperidin-1-yl)-[1,3,5]triazine-2-amine]: the MIC is more than 64 µg/mL.

On to `Cl.O=C(Nc1ccc(Nc2nc(N3CCCCC3)nc(N3CCCCC3)n2)cc1Cl)c1ccc(F)c(F)c1O` [N-[3-chloro-4-(3,4-difluoro-2-hydroxy-benzoylamino)-pheny]-4,6-Bis-((3R,5S)-3,5-diamino-piperidin-1-yl)-[1,3,5]triazine-2-ammine], for which the MIC is less than 16 µg/mL.

As to `Cc1ccc(S(=O)(=O)N(Cc2ccccc2)c2ccc(Nc3nc(NCCCn4ccnc4)nc(N4C[C@H](N)C[C@H](N)C4)n3)cc2O)cc1` [N-Benzyl-N-{4-[4-((3R,5S)-3,5-diamino-piperidin-1-yl)-6-(3-imidazol-1-yl-propylamino)-[1,3,5]triazin-2-ylamino]-2-hydroxy-phenyl}-4-methyl-benzenesulfonamide], the MIC was less than 64 µg/mL.

Take `Cl.O=C(Nc1ccc(Nc2nc(N3CCCCC3)nc(N3CCCC3)n2)cc1O)c1ccc(Cl)cc1` [4-Chloro-N-{4-[4-((3R,5S)-3,5-diamino-piperidin-1-yl)-6-((3R,4S)-3,4-diamino-pyrrolidsin-1-yl)-[1,3,5]triazin-2-ylamino]-2-hydroxy-phenyl}-benzamide]: the MIC was less than 64 µg/mL.

As to `Cl.NC(=O)CNc1nc(N2C[C@H](N)C[C@H](N)C2)nc(N2C[C@H](N)C[C@H](N)C2)n1` [N-carbamoylmethyl-4,6-Bis-((3R,5S)-3,5-diamino-piperidin-1-yl)-[1,3,5]triazine-2-amine], the MIC is more than 64 µg/mL.

The same test, now with this note: Escherichia coli, 18 h, read-out: Potency (MIC).
`CCCCC(=O)Nc1ccc(S(=O)(=O)Nc2ccc(Nc3nc(N4C[C@H](N)C[C@H](N)C4)nc(N4C[C@H](N)C[C@H](N)C4)n3)cc2O)cc1` [N-[3-hydroxy-4-(4-pentanoylamino-benzenesulfonylamino)-phenyl]-4,6-Bis-((3R,5S)-3,5-diamino-piperidin-1-yl)-[1,3,5]triazine-2-amine]: the MIC was less than 64 µg/mL.

On to `CC(C)CCCCCC(=O)Nc1ccc(S(=O)(=O)Nc2ccc(Nc3nc(N4C[C@H](N)C[C@H](N)C4)nc(N4C[C@H](N)C[C@H](N)C4)n3)cc2O)cc1` [N-{3-hydroxy-4-[4-(7-methyl-octanoylamino)-benzenesulfonylamino]-phenyl}-4,6-Bis-((3R,5S)-3,5-diamino-piperidin-1-yl)-[1,3,5]triazine-2-amine], for which the MIC was less than 16 µg/mL.

For `N[C@@H]1C[C@H](N)CN(c2nc(Nc3ccc(-c4ccccc4)cc3)nc(N3C[C@H](N)C[C@H](N)C3)n2)C1` [N-biphenyl-4-yl-4,6-Bis-((3R,5S)-3,5-diamino-piperidin-1-yl)-[1,3,5]triazine-2-amine], the minimal inhibitory concentration (MIC) was less than 64 µg/mL.

Regarding `NCCNc1nc(Nc2ccc3c(c2)-c2ccccc2C3=O)nc(N2C[C@H](N)C[C@H](N)C2)n1` [3-[4-(2-Amino-ethylamino)-6-((3R,5S)-3,5-diamino-piperidin-1-yl)-[1,3,5]triazin-2-ylamino]-fluoren-9-one], the MIC was more than 64 µg/mL.

`CC(=O)c1ccc(Nc2nc(N3C[C@H](N)C[C@H](N)C3)nc(N3C[C@H](O)C[C@H]3CN)n2)cc1` [1-{4-[4-((2S,4R)-2-Aminomethyl-4-hydroxy-pyrrolidin-1-yl)-6-((3R,5S)-3,5-diamino-piperidin-1-yl)-[1,3,5]triazin-2-ylamino]-phenyl}-ethanone]: the MIC is more than 64 µg/mL.

Turning to `N[C@@H]1C[C@H](N)CN(c2nc(Nc3ccc(C(=O)Nc4cccc(C(F)(F)F)c4)c(O)c3)nc(N3C[C@H](N)C[C@H](N)C3)n2)C1` [N-[3-hydroxy-4-(3-trifluoromethyl-phenylcarbamoyl)-phenyl]-4,6-Bis-((3R,5S)-3,5-diamino-piperidin-1-yl)-[1,3,5]triazine-2-amine], the MIC is less than 16 µg/mL.

Consider `N[C@@H]1C[C@H](N)CN(c2nc(Nc3ccc(C(=O)CC(=O)Nc4cccc(OC(F)(F)F)c4)cc3)nc(N3C[C@H](N)C[C@H](N)C3)n2)C1` [N-{4-[2-(3-trifluoromethoxy-phenylcarbamoyl)-acetyl]-phenyl}-4,6-Bis-((3R,5S)-3,5-diamino-piperidin-1-yl)-[1,3,5]triazine-2-amine], for which the MIC was less than 16 µg/mL.

For the molecule `CCCCCC(=O)Nc1ccc(Nc2nc(N3C[C@H](N)C[C@H](N)C3)nc(N3C[C@H](N)C[C@H](N)C3)n2)cc1O` [N-(4-hexanoylamino-3-hydroxy-phenyl)-4,6-Bis-((3R,5S)-3,5-diamino-piperidin-1-yl)-[1,3,5]triazine-2-amine], the MIC was less than 16 µg/mL.

As to `CN(C)c1cccc(Nc2nc(N3C[C@H](N)C[C@H](N)C3)nc(N3C[C@H](N)C[C@H](N)C3)n2)c1` [N-(3-dimethylamino-phenyl)-4,6-Bis-((3R,5S)-3,5-diamino-piperidin-1-yl)-[1,3,5]triazine-2-amine], the minimal inhibitory concentration (MIC) is more than 64 µg/mL.

Turning to `CCn1c(-c2cccc(Nc3nc(N4C[C@H](N)C[C@H](N)C4)nc(N4C[C@H](N)C[C@H](N)C4)n3)c2)cc(=O)n1-c1ccccc1` [N-[3-(2-ethyl-5-oxo-1-phenyl-2,5-dihydro-1H-pyrazol-3-yl)-phenyl]-4,6-Bis-((3R,5S)-3,5-diamino-piperidin-1-yl)-[1,3,5]triazine-2-amine], the MIC was more than 64 µg/mL.

As to `Cc1ccc(C(=O)Nc2ccc(Nc3nc(N4C[C@H](N)C[C@H](N)C4)nc(N4C[C@H](N)C[C@H](N)C4)n3)cc2C)c(O)c1` [N-[4-(2-hydroxy-4-methyl-benzoylamino)-3-methyl-phenyl]-4,6-Bis-((3R,5S)-3,5-diamino-piperidin-1-yl)-[1,3,5]triazine-2-amine], the MIC was less than 64 µg/mL.

`CC(=O)c1ccc(Nc2nc(N(CCN)CCN)nc(N3C[C@H](N)C[C@H](N)C3)n2)cc1` [1-{4-[4-[Bis-(2-amino-ethyl)-amino]-6-((3R,5S)-3,5-diamino-piperidin-1-yl)-[1,3,5]triazin-2-ylamino]-phenyl}-ethanone]: the MIC is less than 64 µg/mL.

In the case of `NC[C@@H]1C[C@H](N)CN1c1nc(Nc2ccc(C(=O)Oc3ccccc3)c(O)c2)nc(N2C[C@H](N)C[C@H](N)C2)n1` [4-[4-((2S,4S)-4-Amino-2-aminomethyl-pyrrolidin-1-yl)-6-((3R,5S)-3,5-diamino-piperidin-1-yl)-[1,3,5]triazin-2-ylamino]-2-hydroxy-benzoic acid phenyl ester], the minimal inhibitory concentration (MIC) is less than 16 µg/mL.

In the case of `N[C@@H]1C[C@H](N)CN(c2nc(Nc3ccc(C(=O)CC(=O)Nc4ccc(SC(F)(F)F)cc4)cc3)nc(N3C[C@@H](N)C[C@H]3CO)n2)C1` [3-{4-[4-((2S,4S)-4-Amino-2-hydroxymethyl-pyrrolidin-1-yl)-6-((3R,5S)-3,5-diamino-piperidin-1-yl)-[1,3,5]triazin-2-ylamino]-phenyl}-3-oxo-N-(4-trifluoromethylsulfanyl-phenyl)-propionamide], the minimum inhibitory concentration (MIC) was less than 16 µg/mL.

As to `Cc1cc(NC(=O)c2ccc(O)cc2O)ccc1Nc1nc(N2C[C@H](N)C[C@H](N)C2)nc(N2C[C@H](N)C[C@H](N)C2)n1` [N-[4-(2,4-dihydroxy-benzoylamino)-2-methyl-phenyl]-4,6-Bis-((3R,5S)-3,5-diamino-piperidin-1-yl)-[1,3,5]triazine-2-amine], the MIC was less than 64 µg/mL.

For the molecule `N[C@@H]1C[C@H](N)CN(c2nc(Nc3ccc(S(=O)(=O)Nc4ccc5cn[nH]c5c4)cc3)nc(N3C[C@@H](N)C[C@H]3CO)n2)C1` [4-[4-((2S,4S)-4-Amino-2-hydroxymethyl-pyrrolidin-1-yl)-6-((3R,5S)-3,5-diamino-piperidin-1-yl)-[1,3,5]triazin-2-ylamino]-N-(1H-indazol-6-yl)-benzenesulfonamide], the MIC is more than 64 µg/mL.

With `CCN(CC)c1ccc(Nc2nc(N3C[C@H](N)C[C@H](N)C3)nc(N3C[C@H](N)C[C@H](N)C3)n2)cc1` [N-(4-diethylamino-phenyl)-4,6-Bis-((3R,5S)-3,5-diamino-piperidin-1-yl)-[1,3,5]triazine-2-amine], the MIC was more than 64 µg/mL.

Take `Cc1ccnc(NS(=O)(=O)c2ccc(Nc3nc(N4C[C@H](N)C[C@H](N)C4)nc(N4C[C@H](N)C[C@H](N)C4)n3)cc2)n1` [N-[4-(4-methyl-pyrimidin-2-ylsulfamoyl)-phenyl]-4,6-Bis-((3R,5S)-3,5-diamino-piperidin-1-yl)-[1,3,5]triazine-2-amine]: the MIC is more than 64 µg/mL.

Values taken from patent publication US7223759B2, “Antibacterial 3,5-diaminopiperidine-substituted aromatic and heteroaromatic compounds” (Anadys Pharmaceuticals, Inc., priority 2003, dated 2007).
